One test deals with mock. The experiment in a line: Whole cell cAMP accumulation in HEK-293 cells. Conditions: 2.5 μM AVP for 15 min., mean±SD, n=3. The class given is cell-based. (In general: cAMP levels reflect the balance of adenylyl cyclase and phosphodiesterase activity.)
Another test has as its target T1, AT1AR R126H-GFP (Rattus norvegicus, UniProt P25095, L81C/R126H/S109T).
T1 construct: expressed in transfected cells; host or cells: HEK-293
T1 sequence (P25095 1-359 L81C/S109T/R126H): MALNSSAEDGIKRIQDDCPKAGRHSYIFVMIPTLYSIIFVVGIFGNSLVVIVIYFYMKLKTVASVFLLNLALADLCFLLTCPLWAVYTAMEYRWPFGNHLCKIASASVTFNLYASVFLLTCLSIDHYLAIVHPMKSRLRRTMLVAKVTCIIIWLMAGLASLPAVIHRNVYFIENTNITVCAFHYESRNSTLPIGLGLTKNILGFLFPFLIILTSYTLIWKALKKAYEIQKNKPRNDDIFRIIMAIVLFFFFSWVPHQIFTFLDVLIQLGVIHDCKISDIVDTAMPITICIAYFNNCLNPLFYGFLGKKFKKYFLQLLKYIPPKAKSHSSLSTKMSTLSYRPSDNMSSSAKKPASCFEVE
Nature of the test: Receptor-GFP localization by confocal microscopy in HEK-293 cells. The class given is cell-based. The conditions noted are these: cultured in 1 μM L158,809, no agonist. The procedure:
(§1) Cell Culture and Transfection—For V2R experiments: HEK-293 cells were grown in Eagle's minimal essential medium with Earle's salt (MEM) supplemented with 10% fetal bovine serum and a 1:100 dilution of penicillin/streptomycin (Sigma Chemicals, St. Louis, Mo.). Cells were transiently transfected with plasmid cDNA using a modified calcium phosphate co-precipitation method as described in Barak et al., 1997, Mol. Pharmacol., 51:177–84. For α1B-AR and AT1AR experiments: Cells were transiently transfected in 10 cm^2 dishes (Falcon) with 1 μg receptor or GRK plasmid cDNA in pCDNA3.1(−) using above modified calcium phosphate transfection coprecipitation method for inositol phosphate and binding assays. For confocal microscopy, cells were transiently transfected in collagen (Sigma) coated 35 mm^2 glass bottom confocal dishes (MatTek, Ashland, Mass.) with Lipofectamine®2000 and Opti-MEM media (Life Technologies) using a standard method (Ciccarone, V., et al., 1999, Focus 21.2, 54–55). Cells for confocal microscopy were transfected with 30 ng of βarrestin or receptor plasmid cDNA in pEGFP and 250 ng of dynamin(K44A), GRK, or receptor in pcDNA3.1/zeo.
(§2) Confocal Microscopy—HEK-293 cells were plated on the day following transfection onto collagen (Sigma Chemical, St. Louis, Mo.) treated 35 mm^2 glass-bottomed culture dishes. […]

Test [1] concerns α1B-AR R143 mutants. Nature of the test: [3H]inositol phosphate accumulation in HEK-293 cells. The class given is cell-based, golden hamster. Conditions: 10 μM NE; R143 substituted with Ala, Glu, His or Asn.
Method: (§4) Inositol Phosphate Determination—Transiently transfected HEK-293 cells in 10 cm^2 dishes were plated onto 12-well plates (Falcon) coated with 25 mg/ml poly-D-lysine (Sigma) and incubated overnight in MEM+10% FBS (fetal bovine serum) at 37° C. To assay for inositol phosphate production, cells were incubated overnight at 37° C. in labeling media (1 μCi/0.5 ml/well of [^3H]inositol in MEM+5% fetal bovine serum). Cells were washed with MEM, 20 mM HEPES, pH 7.4, 20 mM LiCl for 5 minutes at 37° C. and then treated with agonist.
Test [2] deals with T2, wild type α1B-AR (Mesocricetus auratus, UniProt P18841).
T2 construct: expressed in transfected cells; host or cells: HEK-293
T2 sequence (P18841 1-515): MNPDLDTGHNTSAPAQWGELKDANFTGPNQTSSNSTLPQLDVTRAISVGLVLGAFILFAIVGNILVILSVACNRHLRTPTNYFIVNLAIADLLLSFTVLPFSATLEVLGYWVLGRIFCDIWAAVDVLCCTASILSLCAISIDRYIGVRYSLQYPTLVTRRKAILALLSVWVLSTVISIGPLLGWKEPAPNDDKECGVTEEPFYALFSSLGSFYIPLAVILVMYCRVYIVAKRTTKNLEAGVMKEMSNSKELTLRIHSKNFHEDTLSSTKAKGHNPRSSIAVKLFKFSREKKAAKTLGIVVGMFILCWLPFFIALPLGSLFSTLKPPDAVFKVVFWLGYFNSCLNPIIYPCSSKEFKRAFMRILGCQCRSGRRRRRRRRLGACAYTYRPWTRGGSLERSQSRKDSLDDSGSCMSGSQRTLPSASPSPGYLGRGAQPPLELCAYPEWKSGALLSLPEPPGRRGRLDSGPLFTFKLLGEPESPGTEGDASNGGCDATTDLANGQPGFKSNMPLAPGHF
Described as above. Conditions: 10 μM NE, 30 min., vs absence of agonist. The class given is cell-based, golden hamster.
Method: as §4

Test [3] concerns the target T2, wild type α1B-AR. Nature of the test: [3H]prazosin whole cell binding, Scatchard analysis, HEK-293 cells. On the set-up: species or system golden hamster. Conditions: [3H]prazosin Scatchard, read-out: KD for NE.
Method: (§5) For α1B-AR and AT1AR experiments: Transiently transfected HEK-293 cells in 10 cm^2 dishes were washed twice in cold binding buffer (MEM+2% bovine serum albumin [BSA]), incubated for 1 hour at room temperature in binding buffer with varying concentrations of [^3H]prazosin (0.25 nM–8 nM), and washed three times in cold binding buffer to remove unbound ligand. Cell bound [^3H]prazosin was measured using a scintillation counter. Nonspecific binding was determined in the presence of 1000-fold molar excess of phentolamine (10 μM). For binding assays done to measure the effect of the co-expression of dynamin(K44A) or the addition of phentolamine in FIG. 14, a fixed concentration of 8 nM [^3H]prazosin was used.
The next test addresses T3, wild type α1B-AR-GFP (Mesocricetus auratus, UniProt P18841).
T3 construct: expressed in transfected cells; host or cells: HEK-293
T3 sequence (P18841 1-515): T2 sequence (P18841 1-515)
The experiment in a line: Receptor-GFP localization by confocal microscopy in HEK-293 cells. The class given is cell-based, golden hamster. The procedure: as §1
(§3) Confocal Microscopy—HEK-293 cells were plated on the day following transfection onto collagen (Sigma Chemical, St. Louis, Mo.) treated 35 mm^2 glass-bottomed culture dishes. Confocal microscopy was performed with a Zeiss laser-scanning microscope (LSM-510). GFP images were collected using the 488 nm argon excitation and a 505 nm long pass filter. For α1B-AR and AT1AR experiments: HEK-293 cells were transiently transfected in 35 mm^2 confocal dishes. Cells were stimulated with 10 μM NE or 1 μM AngII and incubated at 37° C. for 30 minutes before viewing. Alternatively, cells were cultured overnight at 37° C. in 10 μM phentolamine or 1 μM L158,809. Confocal microscopy was performed at 100× magnification with a Zeiss laser-scanning microscope (LSM-510). GFP and FITC images were collected using 488-nm excitation and a 505-nm long-pass filter.

Another test deals with T4, α1B-AR R143A (Mesocricetus auratus, UniProt P18841, R143A).
T4 construct: expressed in transfected cells; host or cells: HEK-293
T4 sequence (P18841 1-515 R143A): T2 sequence (P18841 1-515) with R143A
Nature of the test: [3H]prazosin whole cell binding, Scatchard analysis, HEK-293 cells. The arrangement: species or system golden hamster. Conditions: [3H]prazosin Scatchard, similar to wild type, read-out: KD for NE.

In test [4] the target is T2, wild type α1B-AR. Nature of the test: βarrestin-GFP translocation in HEK-293 cells. The class given is cell-based, golden hamster. The conditions noted are these: 10 μM NE. The method, then: as §1, §2
The test system of test [5] is α1B-AR R143 mutants. The experiment in a line: βarrestin-GFP translocation in HEK-293 cells. Conditions: 10 μM NE (data not shown). The class given is cell-based, golden hamster. The method, then: as §1, §2
Test [6] deals with T5, α1B-AR R143E-GFP (Mesocricetus auratus, UniProt P18841, R143E).
T5 construct: expressed in transfected cells; host or cells: HEK-293
T5 sequence (P18841 1-515 R143E): T2 sequence (P18841 1-515) with R143E
The experiment in a line: Plasma membrane receptor expression by whole cell [3H]prazosin binding. The class given is cell-based, golden hamster. Conditions: cultured in 10 μM phentolamine at 37° C. overnight; 8 nM [3H]prazosin.
Method: as §5

The target of test [7] is T5, α1B-AR R143E-GFP. The experiment in a line: Receptor-GFP localization by confocal microscopy in HEK-293 cells. The class given is cell-based, golden hamster. Conditions: cultured in 10 μM phentolamine at 37° C. overnight, no agonist. The method, then:
as §1, §3

The next test deals with T6, wild type AT1AR (Rattus norvegicus, UniProt P25095).
T6 construct: expressed in transfected cells; host or cells: HEK-293
T6 sequence (P25095 1-359): T1 sequence (P25095 1-359 L81C/S109T/R126H) with C81L, T109S, H126R
The experiment in a line: βarrestin-GFP translocation in HEK-293 cells. The conditions noted are these: 1 μM AngII. The class given is cell-based. The method, then:
as §1, §2

In test [8] the target is T7, AT1AR R126H (Rattus norvegicus, UniProt P25095, L81C/R126H/S109T).
T7 construct: expressed in transfected cells; host or cells: HEK-293
T7 sequence (P25095 1-359 L81C/S109T/R126H): T1 sequence (P25095 1-359 L81C/S109T/R126H)
The experiment in a line: βarrestin-GFP translocation in HEK-293 cells. Conditions: 1 μM AngII. The class given is cell-based. The procedure: as §1, §2

Another test concerns the target T8, wild type AT1AR-GFP (Rattus norvegicus, UniProt P25095).
T8 construct: expressed in transfected cells; host or cells: HEK-293
T8 sequence (P25095 1-359): T1 sequence (P25095 1-359 L81C/S109T/R126H) with C81L, T109S, H126R
The experiment in a line: Receptor-GFP localization by confocal microscopy in HEK-293 cells. The class given is cell-based. Conditions: 1 μM AngII. The procedure: as §1, §2

Test [9] deals with T7, AT1AR R126H. Nature of the test: [3H]inositol phosphate accumulation in HEK-293 cells. The class given is cell-based. Conditions: stimulated with AngII (1 μM, 1 μg elsewhere in the source). The method, then:
Inositol Phosphate Determination—Transiently transfected HEK-293 cells in 10 cm^2 dishes were plated onto 12-well plates (Falcon) coated with […] poly-D-lysine (Sigma) and incubated overnight in MEM+10% FBS (fetal bovine serum) at 37° C. To assay for inositol phosphate production, cells were incubated overnight at 37° C. in labeling media (1 μCi/0.5 ml/well of [^3H]inositol in MEM+5% fetal bovine serum). Cells were washed with MEM, 20 mM HEPES, pH 7.4, 20 mM LiCl for 5 minutes at 37° C. and then treated with agonist. Total inositol phosphate was extracted and separated as previously described in Cotecchia, S., et al., 1992, J. Biol. Chem. 267: 1633–1639.

Substitutions are numbered along the chain they refer to. pKd: −log10 of the molar value. “Also recorded” adds a separate entry of the source.

Method for α1B-AR R143A: as §5

In the case of `NC(=O)CC[C@@H]1NC(=O)[C@H](Cc2ccccc2)NC(=O)[C@H](Cc2ccc(O)cc2)NC(=O)[C@@H](N)CSSC[C@@H](C(=O)N2CCC[C@H]2C(=O)N[C@@H](CCCN=C(N)N)C(=O)NCC(N)=O)NC(=O)[C@H](CC(N)=O)NC1=O` [AVP, Arginine vasopressin], in the test on mock, the “stimulated cAMP response” value was 0.017±0.006 (counts of [^3H]cAMP per min. per well)/(counts of [^3H]adenine uptake per minute per well).

As for `CCc1nc2c(C)cc(C)nc2n1Cc1ccc(-c2ccccc2-c2nnn[nH]2)cc1` [L158,809, 2-ethyl-5,7-dimethyl-3-[[2′-(1H-tetrazol-5-yl)[1,1′-biphenyl]-4-yl]methyl]-3H-Imidazo[4,5-b]pyridine], at AT1AR R126H-GFP, the “distribution of receptor-GFP” value was “reversal of the receptor localization back to the plasma membrane; also recorded: redistribution of the receptor back to the plasma membrane”.

`NC[C@H](O)c1ccc(O)c(O)c1` [NE, Norepinephrine]: in the test with α1B-AR R143 mutants [1], the “agonist-induced IP response” value was “significantly impaired ability to mediate an agonist-induced IP response”. Moreover, the “increase of [3H]-IP accumulation” value on wild type α1B-AR [2] was found to be 6 fold. Also, the pKd at wild type α1B-AR [3] and at α1B-AR R143A was 8.46 to 8.82 each time. For the same compound, on wild type α1B-AR-GFP (10 μM NE, 30 minutes at 37° C.), the “distribution of receptor-GFP” value is “loss of plasma membrane expression and the redistribution of the receptor to endocytic vesicles”. For the same compound, the “distribution of βarrestin-GFP” value at wild type α1B-AR [4] is on record as “rapid translocation of βarrestin-GFP to the plasma membrane”; with α1B-AR R143 mutants [5] it was “enhances this translocation”.

In the case of `Cc1ccc(N(CC2=NCCN2)c2cccc(O)c2)cc1` [phentolamine], the “plasma membrane receptor expression (whole cell [3H]prazosin binding)” value at α1B-AR R143E-GFP [6] is reported as “increases to the level of the wild type receptor”. Besides, the “distribution of receptor-GFP” value at wild type α1B-AR-GFP (cultured in 10 μM phentolamine at 37° C. overnight) was “no alteration in the expression of the receptor at the plasma membrane; also recorded: no effect on the distribution of the wild type α1B-AR-GFP”; on α1B-AR R143E-GFP [7] it was “complete reversal; also recorded: redistribution of the α1B-AR R143E-GFP from endosomes to the plasma membrane”.

For angiotensin II [AngII], the “distribution of βarrestin-GFP” value at wild type AT1AR is listed as “redistribution of the βarrestin-GFP into endocytic vesicles”; on AT1AR R126H [8] it was “enhanced distribution of βarrestin-GFP into endocytic vesicles”. Further, the “distribution of receptor-GFP” value on wild type AT1AR-GFP is listed as “internalization of the receptor into endocytic vesicles”. Moreover, the “[3H]-IP accumulation / signaling compared to stimulated wild type AT1AR” value at AT1AR R126H [9] is listed as “slight impairment of signaling; also recorded: levels identical to HEK cells transfected with wild type AT1AR”.

In general, pKd refers to the negative decadic logarithm of the Kd, by convention in mol/L.

Source of the values: patent publication US7279324B2, “Nucleic acid encoding G-protein coupled receptor with modified DRY motif” (Duke University, priority 2001, dated 2007).
